Measurements: patent US20240180908A1, “TREATMENT OF KIDNEY DISEASES” (ACLIPSE ONE, INC., priority 2021, published 2024)

Assays:
[1] = PAN-injury podocyte viability assay (Cell Titer-Glo); format: cell-based, human; conditions: human, no test compound, read-out: podocyte viability compared with untreated cells
Description: (§1) Cell Culture. The human podocyte cell line (CIHP-1) is a […] isolated from human kidney. Podocytes are highly specialized, terminally differentiated cells with a complex cellular structure. They are a critical component of glomerular filtration. Cell cycle control, growth arrest and differentiation are key to the in vivo biology of podocytes. The conditionally immortalized podocyte cell line allows an in vitro process of maturation analogous to the development and maturation of podocytes in vivo. […] These include the novel podocyte proteins nephrin, podocin, CD2AP and synaptopodin. This robust cell line is extensively characterized and validated.
(§2) The growth medium of CIHP-1 cells (Ximbio) was RPMI 1640 with 10% fetal bovine serum (FBS), 1-fold of ITS (insulin-transferrin-selenium), and 1-fold Pen/Strep. The culture condition was 33° C. with 5% CO2. The cell detachment solution was Accutase® for 5 min at 33° C. The cell line passage ration was 1:3 every 3 or 4 days.
(§3) PAN-injury podocyte viability assay. Differentiated podocytes were either pretreated with dimethyl sulfoxide (DMSO) as vehicle, lobeglitazone, pioglitazone, rosiglitazone, or dexamethasone followed by puromycin aminonucleoside (PAN) treatment (5 μg/ml). Viability assays were performed after 3 or 5 days of treatments. […] For compound treatment, compounds were diluted to 20, 2, 0.2, 0.02 and 0.002 mM with DMSO. A volume of 1.8 μL of compounds was taken to 358.2 μL of culture medium and mixed. Media from plates were aspirated. A volume of 100 μL compound-added medium was added to each plate. Plates were placed in the incubator for 4 hours.
(§4) On day 0, CIHP-1 cells were seeded into two 96-well white plates using 5000 cell/well for 3 days (plate 1) or 2500 cell/well for 5 days (plate 2) treatment.
(§5) For compound treatment on Day 1, culture medium was aspirated. For each cell plate, 100 μl/well fresh medium with compounds was added for 4 hour. DMSO was used as control. After compound treatment for 4 hours, PAN was added to a final concentration of 5 μg/ml. No PAN treatment was used for the negative control. There was no medium change for the whole process.
(§6) On Day 4, for the first plate, Cell Titer-Glo (CTG) assay was used by adding 60 μl of CTG reagent into each well of the first plate, incubating at room temperature with shaking for 20 min, and then reading by the EnVision plate reader.
(§7) On Day 6, for the second plate, CTG assay was used by adding 60 μl of CTG reagent into each well of the second plate, incubating at RT with shaking for 20 min, and then reading by the EnVision plate reader.

[2] = tested on: human podocyte cell line (CIHP-1); assay: as above; format: cell-based; conditions: for CIHP-1 proliferation by CTG, percentage compared to DMSO control (without PAN): 4 h pretreatment
Description: as §1, §2, §3, §4, §5, §6, §7

[3] = compound 0.1 μM, PAN 5 μg/ml 3-day treatment
[4] = compound 0.1 μM, PAN 5 μg/ml 5-day treatment
[5] = compound 1 μM, PAN 5 μg/ml 3-day treatment
[6] = compound 1 μM, PAN 5 μg/ml 5-day treatment
[7] = compound 10 μM, PAN 5 μg/ml 3-day treatment
[8] = compound 10 μM, PAN 5 μg/ml 5-day treatment
[9] = compound 0.01 μM, PAN 5 μg/ml 3-day treatment
[10] = compound 0.01 μM, PAN 5 μg/ml 5-day treatment
[11] = compound 100 μM, PAN 5 μg/ml 3-day treatment
[12] = compound 100 μM, PAN 5 μg/ml 5-day treatment

SMILES	viability at 3 days, 5 μg/ml ([1]; 5 μg/ml PAN for 3 days)	viability at 5 days, 5 μg/ml ([1]; 5 μg/ml PAN for 5 days)	CIHP-1 proliferation by CTG, percentage compared to DMSO control (without PAN) [2, 3]	CIHP-1 proliferation by CTG, percentage compared to DMSO control (without PAN) [2, 4]	CIHP-1 proliferation by CTG, percentage compared to DMSO control (without PAN) [2, 5]	CIHP-1 proliferation by CTG, percentage compared to DMSO control (without PAN) [2, 6]	CIHP-1 proliferation by CTG, percentage compared to DMSO control (without PAN) [2, 7]	CIHP-1 proliferation by CTG, percentage compared to DMSO control (without PAN) [2, 8]	protection to PAN-injured podocytes ([2]; 0.01 to 100 μM, 3 days of PAN exposure)	improvement of podocyte viability ([2]; 0.01 to 100 μM, after 5 days of PAN injury)	CIHP-1 proliferation by CTG, percentage compared to DMSO control (without PAN) [2, 9]	CIHP-1 proliferation by CTG, percentage compared to DMSO control (without PAN) [2, 10]	CIHP-1 proliferation by CTG, percentage compared to DMSO control (without PAN) [2, 11]	CIHP-1 proliferation by CTG, percentage compared to DMSO control (without PAN) [2, 12]	concentration at which toxicity to the podocyte cells was observed ([2]; human, 3 days)
CN(C)c1ncnc2c1ncn2[C@@H]1O[C@H](CO)[C@@H](N)[C@H]1O [PAN, puromycin aminonucleoside]	70 to 80%	30 to 40%	–	–	–	–	–	–	–	–	–	–	–	–	–
C[C@@H]1C[C@H]2[C@@H]3CCC4=CC(=O)C=C[C@]4(C)[C@@]3(F)[C@@H](O)C[C@]2(C)[C@@]1(O)C(=O)CO [dexamethasone]	–	–	79.9%	34.2%	73.9%	34.9%	74.7%	33.6%	–	–	–	–	–	–	–
COc1ccc(Oc2cc(N(C)CCOc3ccc(CC4SC(=O)NC4=O)cc3)ncn2)cc1 (centres unmarked) [lobeglitazone, 5-(4-(2-((6-(4-Methoxyphenoxy)pyrimidin-4-yl)(methyl)amino)ethoxy)benzyl) thiazolidine-2,4-dione]	–	–	99.9%	33.0%	103.3%	32.8%	105%	33.7%	significant protection	did not show significant improvement	102.7%	31.0%	19.9%	6.2%	100 µM
CCc1ccc(CCOc2ccc(CC3SC(=O)NC3=O)cc2)nc1 (centres unmarked) [pioglitazone]	–	–	101.3%	38.3%	97.3%	30.0%	94.3%	33.4%	–	–	102.4%	35.2%	90.9%	22.4%	–
CN(CCOc1ccc(CC2SC(=O)NC2=O)cc1)c1ccccn1 (centres unmarked) [rosiglitazone]	–	–	76.0%	32.7%	74.5%	33.6%	69.2%	29.1%	–	–	72.4%	32.6%	69.6%	15.0%	–
